Results from PMC6479757, “Coralmycin Derivatives with Potent Anti-Gram Negative Activity Produced by the Myxobacteria Corallococcus coralloides M23” (Molecules, 2019).
Values after ≈ are worked out from the molar mass of the structure shown. Read-outs that look alike come from different tables or passages of the source.

Legend:
[1] = tested on: MRSA CCARM 3506; assay: Antibacterial susceptibility, broth microdilution MIC; format: cell-based; conditions: Staphylococcus aureus, 24-h incubation at 37 °C
Procedure: (§1) Whole-cell antimicrobial activities were determined using a broth microdilution method described previously. Most of the test strains were grown to mid-log phase in Mueller–Hinton broth and diluted 1,000-fold in the same medium. Cells (10^5/mL) were dispensed at 0.2 mL/well in 96-well microtiter plates. Streptococcus pneumonia and Acinetobacter baumanii were grown in Todd–Hewitt medium and nutrient broth, respectively. […]. Cells were treated with 0.05% DMSO as a vehicle control. The MICs were determined in triplicate by serial two-fold dilutions of the test compounds. […] Bacterial growth was determined by measuring the absorption at 650 nm using a microtiter enzyme-linked immunosorbent assay (ELISA) reader (Molecular Devices Corporation, Sunnyvale, CA, USA).

[2] = tested on: Pseudomonas aeruginosa KCTC 2004; assay: as above; format: cell-based; conditions: for MIC: KCTC2004, Pseudomonas aeruginosa KCTC 2004, 24-h incubation at 37 °C; for antibacterial activities against P. aeruginosa: in words
Procedure: as §1

[3] = tested on: Streptococcus pneumonia KCTC 5412; assay: as above; format: cell-based; conditions: Streptococcus pneumoniae, KCTC5412, Todd–Hewitt medium, 24-h incubation at 37 °C
Procedure: as §1

[4] = tested on: QRSA CCARM 3505; assay: as above; format: cell-based; conditions: Staphylococcus aureus, CCARM3505; QRSA CCARM 3505; 24-h incubation at 37 °C; read-out: MIC
Procedure: as §1

[5] = tested on: E. coli KCTC 1682; assay: as above; format: cell-based; conditions: Escherichia coli
Procedure: as §1

[6] = tested on: MRSA CCARM 3167; assay: as above; format: cell-based; conditions: Staphylococcus aureus, 24-h incubation at 37 °C
Procedure: as §1

[7] = tested on: E. coli CCARM 1356; assay: as above; format: cell-based; conditions: Escherichia coli, CCARM1356, 24-h incubation at 37 °C
Procedure: as §1

[8] = tested on: Enterococcus faecalis KCTC 5191; assay: as above; format: cell-based; conditions: KCTC5191, 24-h incubation at 37 °C
Procedure: as §1

[9] = tested on: Klebsiella pneumoniae KCTC 22057; assay: as above; format: cell-based; conditions: for MIC: KCTC22057, Klebsiella pneumoniae KCTC 22057, 24-h incubation at 37 °C; for growth inhibition of K. pneumonia: at 32 μg/mL
Procedure: as §1

[10] = tested on: Acinetobacter baumannii KCTC 2508; assay: as above; format: cell-based; conditions: KCTC2508, nutrient broth, 24-h incubation at 37 °C
Procedure: as §1

[11] = tested on: QRSA CCARM 3519; assay: as above; format: cell-based; conditions: Staphylococcus aureus, CCARM3519; QRSA CCARM 3519; 24-h incubation at 37 °C; read-out: MIC
Procedure: as §1

[12] = tested on: Staphylococcus aureus RN 4220; assay: as above; format: cell-based; conditions: RN4220, 24 h
Procedure: Whole-cell antimicrobial activities were determined using a broth microdilution method described previously. Most of the test strains were grown to mid-log phase in Mueller–Hinton broth and diluted 1,000-fold in the same medium. Cells (10^5/mL) were dispensed at 0.2 mL/well in 96-well microtiter plates. Streptococcus pneumonia and Acinetobacter baumanii were grown in Todd–Hewitt medium and nutrient broth, respectively. […] Cells were treated with 0.05% DMSO as a vehicle control. The MICs were determined in triplicate by serial two-fold dilutions of the test compounds. […] Bacterial growth was determined by measuring the absorption at 650 nm using a microtiter enzyme-linked immunosorbent assay (ELISA) reader (Molecular Devices Corporation, Sunnyvale, CA, USA).

[13] = molecular target: T1, E. coli DNA gyrase (Escherichia coli, UniProt P0AES4+P0AES6); assay: DNA gyrase supercoiling assay; format: biochemical; conditions: relaxed plasmid, 37 °C for 30 min, agarose gel band densities; read-out: IC50, inhibition of the supercoiling activity of E. coli DNA gyrase
T1 construct: purchased TopoGEN TG2001G
Procedure: The inhibitory activities of coralmycins on the supercoiling activity of DNA gyrase were investigated using a ‘Purified E. coli DNA Gyrase Drug Screening Kit’ (TopoGEN #TG2001G, Buena Vista, CO, USA). […] The reaction was terminated by the addition of 2 μL of 10% (w/v) SDS and 2 μL of 10× DNA gel loading dye (bromophenol blue). Then, 20 μL of chloroform:isoamyl alcohol (24:1 mixture) was added, and the mixture was vortexed and then centrifuged. The samples in the blue phase were run on 1% (w/v) agarose gel and were visualized using ethidium bromide. All reactions were performed in triplicate. To calculate the IC50 values, the band densities were measured using ImageJ (National Institutes of Health, Bethesda, Maryland, MD, USA).

[14] = KCTC1682, 24-h incubation at 37 °C, Table 6 and Table S1, read-out: MIC
[15] = KCTC1682, 24 h, Table 7, read-out: MIC, antibacterial activity on E. coli KCTC 1682
[16] = KCTC1682, Table 7, read-out: MIC, antibacterial activity on E. coli KCTC 1682

T1 sequence (P0AES4 whole entry, one chain of several): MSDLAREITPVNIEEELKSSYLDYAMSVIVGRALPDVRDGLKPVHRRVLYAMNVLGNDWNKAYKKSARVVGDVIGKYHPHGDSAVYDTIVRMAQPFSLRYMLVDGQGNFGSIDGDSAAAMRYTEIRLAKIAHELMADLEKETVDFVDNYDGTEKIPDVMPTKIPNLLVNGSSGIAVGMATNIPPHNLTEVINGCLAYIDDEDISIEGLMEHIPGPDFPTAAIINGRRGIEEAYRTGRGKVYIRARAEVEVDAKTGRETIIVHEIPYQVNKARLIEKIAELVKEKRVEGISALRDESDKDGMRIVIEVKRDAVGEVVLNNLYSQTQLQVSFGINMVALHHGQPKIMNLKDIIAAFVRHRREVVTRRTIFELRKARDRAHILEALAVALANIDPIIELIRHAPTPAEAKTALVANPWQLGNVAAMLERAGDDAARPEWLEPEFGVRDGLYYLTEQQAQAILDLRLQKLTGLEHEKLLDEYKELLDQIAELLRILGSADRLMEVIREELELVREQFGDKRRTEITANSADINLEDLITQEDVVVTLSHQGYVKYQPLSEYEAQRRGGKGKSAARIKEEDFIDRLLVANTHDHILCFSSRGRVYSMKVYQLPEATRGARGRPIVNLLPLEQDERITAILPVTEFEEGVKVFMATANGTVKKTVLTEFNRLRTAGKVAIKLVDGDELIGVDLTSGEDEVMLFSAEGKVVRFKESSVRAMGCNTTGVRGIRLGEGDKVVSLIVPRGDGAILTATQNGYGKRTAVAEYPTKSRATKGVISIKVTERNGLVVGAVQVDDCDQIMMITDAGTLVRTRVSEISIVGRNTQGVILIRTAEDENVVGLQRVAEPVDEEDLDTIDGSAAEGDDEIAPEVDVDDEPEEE

Structure (SMILES) | MIC [1] | MIC [2] | MIC [3] | MIC [4] | MIC [5, 14] | MIC [6] | MIC [7] | MIC [8] | MIC [9] | MIC [10] | MIC [11] | MIC [12] | IC50 [13] | antibacterial activities against P. aeruginosa [2] | MIC [5, 15] | growth inhibition of K. pneumonia [9] | MIC [5, 16]
CCOc1c(NC(=O)c2ccc(N)cc2)ccc(C(=O)Nc2ccc(C(=O)O)cc2OC(C)C)c1O [Compound 6, Coralmycin H] | > 32 µg/mL | > 32 µg/mL | > 32 µg/mL | > 32 µg/mL | > 32 µg/mL | > 32 µg/mL | > 32 µg/mL | > 32 µg/mL | > 32 µg/mL | > 32 µg/mL | > 32 µg/mL | > 32 µg/mL | – | – | – | – | –
CCOc1cc(C(=O)O)ccc1NC(=O)c1ccc(NC(=O)c2ccc(N)cc2)c(OC(C)C)c1O [Compound 7, Coralmycin I] | > 32 µg/mL | > 32 µg/mL | > 32 µg/mL | > 32 µg/mL | > 32 µg/mL | > 32 µg/mL | > 32 µg/mL | > 32 µg/mL | > 32 µg/mL | > 32 µg/mL | > 32 µg/mL | > 32 µg/mL | – | – | – | – | –
COc1cc(C(=O)O)ccc1NC(=O)c1ccc(NC(=O)c2ccc(NC(=O)[C@@H](NC(=O)c3ccc(NC(=O)c4ccc([N+](=O)[O-])cc4)cc3)[C@@H](OC)C(N)=O)cc2)c(OC(C)C)c1O [Compound 8, cystobactamid 891-2] | 0.125 µg/mL (≈ 0.14 µM) | 4 µg/mL (≈ 4.49 µM) | 2 µg/mL (≈ 2.24 µM) | 2 µg/mL (≈ 2.24 µM) | 0.25 µg/mL (≈ 0.28 µM) | 0.5 µg/mL (≈ 0.561 µM) | 0.5 µg/mL (≈ 0.561 µM) | 1 µg/mL (≈ 1.12 µM) | > 32 µg/mL | 1 µg/mL (≈ 1.12 µM) | 1 µg/mL (≈ 1.12 µM) | 0.25 µg/mL (≈ 0.28 µM) | 50 nM | weak antibacterial activities | 0.25 µg/mL (≈ 0.28 µM) | did not inhibit the growth | –
CCOc1cc(C(=O)O)ccc1NC(=O)c1ccc(NC(=O)c2ccc(NC(=O)[C@@H](NC(=O)c3ccc(NC(=O)c4ccc([N+](=O)[O-])cc4)cc3)[C@@H](OC)C(N)=O)cc2)c(OC(C)C)c1O [Compound 9, cystobactamid 905-2] | 0.25 µg/mL (≈ 0.276 µM) | 8 µg/mL (≈ 8.83 µM) | 1 µg/mL (≈ 1.1 µM) | 2 µg/mL (≈ 2.21 µM) | 0.5 µg/mL (≈ 0.552 µM) | 0.25 µg/mL (≈ 0.276 µM) | 1 µg/mL (≈ 1.1 µM) | 0.5 µg/mL (≈ 0.552 µM) | > 32 µg/mL | 0.5 µg/mL (≈ 0.552 µM) | 1 µg/mL (≈ 1.1 µM) | 0.125 µg/mL (≈ 0.138 µM) | 130 nM | weak antibacterial activities | 0.25 µg/mL (≈ 0.276 µM) | did not inhibit the growth | –
CO[C@@H](C(N)=O)[C@H](NC(=O)c1ccc(NC(=O)c2ccc([N+](=O)[O-])cc2)cc1)C(=O)Nc1ccc(C(=O)Nc2ccc(C(=O)Nc3ccc(C(=O)O)cc3OC(C)C)c(O)c2OC(C)C)cc1 [Compound 11, cystobactamid 919-2, reference compound] | 0.25 µg/mL (≈ 0.272 µM) | 4 µg/mL (≈ 4.35 µM) | 1 µg/mL (≈ 1.09 µM) | 1 µg/mL (≈ 1.09 µM) | 1 µg/mL (≈ 1.09 µM) | 0.25 µg/mL (≈ 0.272 µM) | 2 µg/mL (≈ 2.17 µM) | 0.25 µg/mL (≈ 0.272 µM) | 4 µg/mL (≈ 4.35 µM) | 2 µg/mL (≈ 2.17 µM) | 1 µg/mL (≈ 1.09 µM) | 0.125 µg/mL (≈ 0.136 µM) | 950 nM | – | – | – | 1 µg/mL (≈ 1.09 µM)
CO[C@H](C(=O)O)[C@H](NC(=O)c1ccc(NC(=O)c2ccc([N+](=O)[O-])cc2)cc1)C(=O)Nc1ccc(C(=O)Nc2ccc(C(=O)Nc3ccc(C(=O)O)cc3OC(C)C)c(O)c2OC(C)C)cc1 [Compound 13, coralmycin B, reference compound] | 1 µg/mL (≈ 1.09 µM) | > 16 µg/mL | > 16 µg/mL | – | 4 µg/mL (≈ 4.34 µM) | 1 µg/mL (≈ 1.09 µM) | 16 µg/mL (≈ 17.4 µM) | 4 µg/mL (≈ 4.34 µM) | > 16 µg/mL | 4 µg/mL (≈ 4.34 µM) | – | 2 µg/mL (≈ 2.17 µM) | 1070 nM | – | – | – | 4 µg/mL (≈ 4.34 µM)
